Literature values in patent US11433096B2, “Ophthalmic formulation and methods of use” (priority 2020, dated 2022).

Key:
[1] = tested on: opacities; details: in vivo
[2] = tested on: diabetes-induced cataract; details: diabetic rats

In the case of `O=S(=O)([O-])[O-].[Zn+2]` [Zinc Sulfate], the “opacities progression and opacity score” value [1] is listed as “retard opacities progression and lowering the opacity score”.

In the case of `[Zn]` [zinc], the “cross-linked glycation, expression of the receptor of glycated products and oxidative stress indicators in the eye lens” value ([2]; supplemental zinc) is listed as “alleviated”, the “progression and maturation of diabetes-induced cataract” value ([2]; supplemental zinc) is listed as “alleviated” and the “reduced content of total and imbalanced proportion of soluble proteins in the lens” value ([2]; supplemental zinc) is listed as “effective in preventing”. The “concentration of heat shock protein in the eye lens, specifically α-crystallin” value ([2]; zinc supplementation) was “induced” and the “elevated activity and expression of polyol pathway enzymes and molecules in the lens” value ([2]; zinc supplementation) was “counteracted”.
